Results taken from patent US20250170252A1, “QUINONE PROTECTED FORMS AND CONJUGATES” (CAMBRIDGE ENTERPRISE LIMITED, priority 2022, published 2025).
Where two headings read alike, the source gives them in different places. Values belong to the compound of their own block, whether it stands above or below them.

What was measured:
[1] = pH-rate aqueous kinetic analysis of fragmentation (para-aminobenzyl ketols); assay type: physicochemical; settings: for pH at which elimination rate peaks / half-life at 0.155 mM: citrate-phosphate buffer; for half-life at 0.155 mM: pH 7, pH 7, read-out: release t1/2 (converted)
Experimental: pH-rate analysis was performed by adaption of the PenG assay. To obtain deprotected para-aminobenzyl ketol species, 2-phenylacetyl protected ketol was dissolved in PBS with 33% DMF to a concentration of 3.3 mM. 20 μL of a stock solution of PenG was added to 600 μL of this stock and incubated for 20 min at 37° C. 20 μL of a 100 mM stock of internal standard in DMSO was added. Reactions were then set up immediately. For a reaction, 10 μL of the amino-benzyl ketol/standard stock was added to 190 μL of citrate-phosphate buffer at the specified pH to obtain an aqueous solution containing 1.8% DMSO. Test samples were incubated at 37° C. with shaking. At the recorded time points, 20 μL aliquots of the reactions were analysed by HPLC (254 nm, ThermoFisher U3000). HPLC conditions: column Phenomenex Kinetex C18 5 μm, 50×4.6 mm, 100 Å; solvent system A=H2O, B=acetonitrile; flow=1 mL/min. Gradient and solvent system for assay with PAB-PhQ 7: A=H2O, B=acetonitrile, t=0-1 min 0% B, t=1-10 min 0-100% B, t=10-11 min 0% B. Gradient and solvent system for assay with PAB-BL 10 and PAB-DN 18: A=H2O+0.1% formic acid, B=acetonitrile+0.1% formic acid, t=0-1 min 0% B, t=1-10 min 0-40% B, t=10-16 min 40-50% B, t=16.1 min 100% B, t=16.1-18 min 100% B, t=18-20 min 0% B. Values described represent peak area (mAU*min) divided by peak area of internal standard. Where necessary, peaks were deconvoluted using Origin fitting software. Recorded values are averages of three independent reactions and error bars display standard error of the mean. Values were fitted using GraphPad Prism software. Rate and half-life measurements were calculated based on disappearance of the para-aminobenzyl ketol species.

[2] = Glucuronide kinetics assay (release of β-lapachone after β-glucuronide deprotection); assay type: physicochemical
Experimental: Glucuronide prodrug (37a, b, c, d) was dissolved in DMSO to a concentration of 10 mM. A 100 mM stock solution of warfarin in DMSO was also prepared. To obtain deprotected para-hydroxybenzyl ketol species, the glucuronide stock solution was dissolved in PBS with 16.7% DMF to a concentration of 1.7 mM. 15 μL of a stock solution of R-glucuronidase from E. coli K-12 (Roche #03707580001, 140 U/mL) was added to 900 μL of this stock and incubated for 20 min at 37° C. 15 μL of a 100 mM stock of warfarin internal standard in DMSO was added. Reactions were then set up immediately. For a reaction, 30 μL of the amino-benzyl ketol/standard stock was added to 195 μL of citrate-phosphate buffer at the specified pH. Test samples were incubated at 37° C. with shaking. At the recorded time points, 20 μL aliquots of the reactions were analysed by HPLC (254 nm, Agilent 1260 Infinity). HPLC conditions: column Agilent InfinityLab Poroshell 120 SB—C18 2.7 μm, 50×4.6 mm; solvent system A=H2O+0.1% TFA, B=acetonitrile+0.1% TFA; flow=1 mL/min. Gradient: t=0-1 min 0% B, t=1-2 min 0-30% B, t=2-17 min 30-40% B, t=17-17.1 min 40-100% B, t=17.1-18 min 100% B, t=18-23 min 0% B. Relative peak area represents raw peak area (mAU*s) normalized to raw peak area of the warfarin internal standard. Values recorded are averages of three independent reactions and error bars display standard error of the mean. Values were fitted to first-order kinetics using GraphPad Prism 9 software. A positive control experiment was performed under identical conditions with known substrate 4-nitrophenyl-β-D-glucuronide (Sigma Aldrich) to confirm enzyme activity.

[3] = test system: Panc-1 pancreatic cancer cell line; assay: CellTiter Glo viability assay, Panc-1; assay type: cell-based; settings: for IC50: Homo sapiens, PANC-1, 48 h; for toxicity without the β-glucuronidase enzyme: Panc-1, up to 100 μM
Experimental: (§1) For CellTiter Glo viability assays, 10,000 cells per well were plated on Day 1 and were allowed to adhere to the plate surface for 24 hours. Optimized concentration ranges of prodrugs were determined and made via serial dilution. […] Cells were incubated with compound for 48 hours and viability was assessed on Day 4 using the CellTiter Glo Viability assay which measures metabolically active cells by quantifying the amount of ATP present.
(§2) Panc-1 cells were obtained from Tony Kouzarides' lab in the Gurdon Institute at the University of Cambridge and put into culture at passage 10 containing DMEM media (Gibco) supplemented with 1% Pen-Strep antibiotic (Gibco), 1% L-glutamine, and 10% fetal bovine serum (FBS, sterile-filtered). Aspc-1 cells were bought commercially from the American Type Culture Collection (ATCC) and put into culture containing RPMI 1640 media (Gibco) supplemented with 1% Pen-Strep antibiotic (Gibco), 1% L-glutamine, and 20% fetal bovine serum (FBS, sterile-filtered). All cell lines were started at passage 10 and passaged every 3 days by centrifuging at 1000 rpm for 4 minutes.

[4] = test system: Aspc-1 pancreatic cancer cell line; assay: CellTiter Glo viability assay, Aspc-1; assay type: cell-based; settings: for toxicity without the β-glucuronidase enzyme: Aspc-1, up to 100 μM; for IC50: Homo sapiens, ASPC1, 48 h
Experimental: as §1, §2

MOLM-13 = assay: Viability assay with small molecule prodrugs, Trypan Blue exclusion, MOLM-13; assay type: cell-based; settings: 5 μM, 24 h timepoint
Experimental: For assays assessing cytotoxicity of β-lapachone versus small molecule dipeptide prodrugs, suspension cells were plated into 24 well plates at a density of 2.5×10^5 cells/mL in 240 μL. Serial dilutions of compound were made up in PBS. 60 μL of each stock of either PBS, or compound in PBS was added to the cells to achieve the desired final concentration. After the specified incubation time, toxicity was assessed by counting of live cells using the Trypan Blue exclusion method with a Countess II Automated Cell Counter (ThermoFisher Scientific) according to the manufacturer's instructions. Cell viability was determined by division of average live cell number of treated wells by average live cell number for control wells treated with PBS only. Values recorded are the mean of three repeat wells, with error bars representing the standard error of the mean for each concentration tested. IC50 values were calculated using GraphPad Prism software.

[5] = 1H NMR kinetic analysis of elimination of PAB-PhQ; assay type: physicochemical; settings: 25° C., moderately acidic methanolic solution
Experimental: Kinetics of the release of PhQ 4, from PAB-PhQ 7 were monitored by ^1H NMR at 25° C. Analysis was performed in MeOD due to poor solubility of the compound in H2O. To form the active eliminating species, Boc-PAB-PhQ 6 was dissolved in dichloromethane/trifluoroacetic acid 4:1 at 0° C. and stirred for 30 min, upon which the reaction appeared complete by thin-layer chromatography. Product 7 was dried in vacuo before being dissolved in MeOD. Basicity of the solution was altered by addition of triethylamine (drops). pH was estimated using pH paper. pH values are indicative only as analysis is performed in MeOD. Elimination rates were determined from the aromatic region. Kinetics were measured by monitoring the integral of one peak, normalised to number of protons present (i.e. integral of 1H), divided by the total integral of the aromatic region (δ=6.2-8.6 ppm, i.e. integral of 12H). Analysis was performed using Mestrenova 8.0 processing software and rate constants were calculated using GraphPad Prism v8.0 software.

[6] = Penicillin-G amidase mediated kinetic analysis of elimination at physiological pH; assay type: physicochemical; settings: pH 7.4, 37° C.
Experimental: Stocks of 2-phenylacetyl-para-aminobenzyl ketol were made up in DMF at a concentration of 10 mM. For a reaction, 17.5 μL of ketol stock was added to 17.5 μL of a 10 mM stock of internal standard in DMF and 310 μL of PBS at pH 7.4. To initiate a reaction, 5 μL of a suspension of Penicillin-G amidase (PenG, Sigma Aldrich enzyme 76427, 5-10 U/mg) was added. In control samples 5 μL of PBS was added in place of the enzyme. Test and control samples were then incubated at 37° C. with shaking. At the recorded time points, 20 μL aliquots of the reactions were analysed by HPLC (254 nm, ThermoFisher U3000). HPLC column: Phenomenex Kinetex C18, 5 μm, 50×4.6 mm, 100 Å; flow=1 mL/min. Gradient and solvent system for assay with 2-phenylacetyl-PAB-PhQ 21: A=H2O, B=acetonitrile, t=0-1 min 0% B, t=1-10 min 0-100% B, t=10-11 min 0% B. Gradient and solvent system for assay with 2-phenylacetyl-PAB-BL 22 and 2-phenylacetyl-PAB-DN 23: A=H2O+0.1% formic acid, B=acetonitrile+0.1% formic acid, t=0-1 min 0% B, t=1-10 min 0-40% B, t=10-16 min 40-50% B, t=16.1 min 100% B, t=16.1-18 min 100% B, t=18-20 min 0% B. Peaks were identified by LCMS analysis and comparison with pure compounds. Values described represent peak area (mAU*min) divided by peak area of internal standard. Recorded values are averages of three independent reactions and error bars display standard error of the mean. Fitting was performed using GraphPad Prism 8 software. Rate and half-life measurements were calculated by consumption of intermediate para-aminobenzyl ketol and formation of product quinone.

half-life at 0.155 mM ([1]; additional repeats of the experiments): 542 days | half-life at 0.155 mM ([1]; initially reported value): 32.9 days
Compound: CC1(C)CCC2=C(O1)c1ccccc1C(O)(Cc1ccc(N)cc1)C2=O (centres unmarked) [Compound 10, 6-(4-aminobenzyl)-6-hydroxy-2,2-dimethyl-2,3,4,6-tetrahydro-5H-benzo[h]chromen-5-one]
pH at which elimination rate peaks ([1]; 37° C.): 3 | release rate kobs ([1]; pH 7, initially reported value): 2.4e-07 s⁻¹ | elimination resulting in formation of 1 ([1]; pH≥6 within 72 h, 37° C.): Negligible elimination

Compound: CC1(C)CCC2=C(O1)c1ccccc1C(O)(Cc1cc(F)c(O[C@@H]3O[C@H](C(=O)O)[C@@H](O)[C@H](O)[C@H]3O)c(F)c1)C2=O (stereo partly drawn) [Compound 37b, (2S,3S,4S,5R,6S)-6-(2,6-difluoro-4-((6-hydroxy-2,2-dimethyl-5-oxo-3,4,5,6-tetrahydro-2H-benzo[h]chromen-6-yl)methyl)phenoxy)-3,4,5-trihydroxytetrahydro-2H-pyran-2-carboxylic acid]
elimination rate compared with plain PHB linker ([2]; pH 3-7 (FIG. 6)): faster | elimination rate compared with plain PHB linker 37a ([2]; pH 3-8.5 (FIG. 7)): faster | release rate of β-lapachone, kobs ([2]; pH 7, 37° C., after β-glucuronide deprotection, first experiments): 2.68e-06 s⁻¹ | quinone release rate, kobs ([2]; pH 7, additional fragmentation experiments): 4.2e-06 s⁻¹ | elimination rate compared with plain PHB linker ([2]; pH 8-10 (FIG. 6)): slower | elimination rate compared with plain PHB linker 37a ([2]; pH 9-10 (FIG. 7)): slower | IC50 [3]: 13.4 µM | toxicity without the β-glucuronidase enzyme [3]: no toxicity | toxicity without the β-glucuronidase enzyme [4]: no toxicity | IC50 [4]: 24.4 µM

Compound: CC(=O)Oc1c2c(c3ccccc3c1OC(C)=O)OC(C)(C)CC2 [Compound 29, 2,2-dimethyl-3,4-dihydro-2H-benzo[h]chromene-5,6-diyl diacetate]
toxicity to MOLM-13 (MOLM-13): complete cell death

elimination of 7, rate kobs ([6]; intermediate 7 generated from 21): 9.72 (±2.88)×10^−6 s^−1
Compound: Nc1ccc(CC2(O)C(=O)c3ccccc3-c3ccccc32)cc1 (centres unmarked) [Compound 7, 10-(4-aminobenzyl)-10-hydroxyphenanthren-9(10H)-one]
rate of consumption of 7 (kobs) ([5]; first-order fit): 6.18±0.12×10^−5 s^−1 | rate of formation of product 4 (kobs) ([5]; from 7): 6.55±0.22×10^−5 s^−1 | time to complete release ([5]; release of 4 from 7): ≤ 20 h | pH at which elimination rate peaks ([1]; 37° C.): 5-6

Compound: para-Aminobenzyl dunni-ketol [Compound 18]
elimination rate compared with PAB-BL 10 ([1]; 37° C., range of pH values): very similar rate

formation of PhQ 4, rate kobs ([6]; following addition of Penicillin-G amidase to 21): 1.15 (±0.66)×10^−5 s^−1 | stability without added enzyme ([6]; no Penicillin-G amidase): stable
Compound: O=C(Cc1ccccc1)Nc1ccc(CC2(O)C(=O)c3ccccc3-c3ccccc32)cc1 (centres unmarked) [Compound 21, 2-Phenyl-acetyl-para-aminobenzyl phenanthrene-ketol]

Compound: COc1cc(O[C@@H]2O[C@H](C(=O)O)[C@@H](O)[C@H](O)[C@H]2O)ccc1CC1(O)C(=O)C2=C(OC(C)(C)CC2)c2ccccc21 (single isomer, unassigned) [Compound 37d]
release rate compared with other derivatives ([2]; pH 6-10 (FIG. 7)): orders of magnitude faster release | IC50 [3]: 0.904 µM | toxicity without the β-glucuronidase enzyme [3]: no toxicity | toxicity without the β-glucuronidase enzyme [4]: no toxicity | IC50 [4]: 2.99 µM
